Assay results: ChEMBL document CHEMBL1201862, “PubChem BioAssay data set” (2004)
“And” between values parts separate entries of the source, which are not always exact repeats. Equal values may be shown once.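 Five compound concentrations were applied to cells in 96-well plates for 48 hours; endpoints were derived by simple linear interpolation of the resulting dose-response curve. GI50 is the concentration that inhibits growth by half.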 The source made the active and inactive calls. Rule as the data show it: active = GI50 up to about 1.1 µM and inactive = higher.

What was measured:
Test in all cases: NCI anticancer screen, dose series, 48 h
BT-549 = tested on: BT-549
Malme-3M = tested on: Malme-3M
NCI-H522 = tested on: NCI-H522
SF-295 = tested on: SF-295
SR = tested on: SR
A498 = tested on: A498
A549 = tested on: A549
SW-620 = tested on: SW-620
SNB-19 = tested on: SNB-19
OVCAR-5 = tested on: OVCAR-5
NCI-H226 = tested on: NCI-H226
RXF 393 = tested on: RXF 393
OVCAR-8 = tested on: OVCAR-8
U-251 = tested on: U-251
NCI-H460 = tested on: NCI-H460
786-0 = tested on: 786-0
EKVX = tested on: EKVX
MOLT-4 = tested on: MOLT-4
DU-145 = tested on: DU-145
UO-31 = tested on: UO-31
SF-268 = tested on: SF-268
CCRF-CEM = tested on: CCRF-CEM
SNB-75 = tested on: SNB-75
UACC-257 = tested on: UACC-257
HT-29 = tested on: HT-29
SK-MEL-5 = tested on: SK-MEL-5
SK-OV-3 = tested on: SK-OV-3
TK-10 = tested on: TK-10
MDA-MB-231 = tested on: MDA-MB-231
UACC-62 = tested on: UACC-62
NCI/ADR-RES = tested on: NCI/ADR-RES
HCC 2998 = tested on: HCC 2998
NCI-H23 = tested on: NCI-H23
IGROV-1 = tested on: IGROV-1
RPMI-8226 = tested on: RPMI-8226
HCT-15 = tested on: HCT-15
HL-60 = tested on: HL-60
Hs-578T = tested on: Hs-578T
MCF7 = tested on: MCF7
MDA-N = tested on: MDA-N
OVCAR-3 = tested on: OVCAR-3
CAKI-1 = tested on: CAKI-1
M14 = tested on: M14
K562 = tested on: K562
HCT-116 = tested on: HCT-116
ACHN = tested on: ACHN
SN12C = tested on: SN12C
SK-MEL-28 = tested on: SK-MEL-28
KM12 = tested on: KM12
HOP-62 = tested on: HOP-62
HOP-92 = tested on: HOP-92
T47D = tested on: T47D
SK-MEL-2 = tested on: SK-MEL-2
LOX IMVI = tested on: LOX IMVI
SF-539 = tested on: SF-539
PC-3 = tested on: PC-3
MDA-MB-435 = tested on: MDA-MB-435
OVCAR-4 = tested on: OVCAR-4

With `CCOC(=O)c1c(-c2ccc(OC)c(O)c2)c(C#N)c(=S)n(C2OC(COC(C)=O)C(OC(C)=O)C(OC(C)=O)C2OC(C)=O)c1-c1ccccc1` (stereo unspecified) the GI50 (BT-549) was 28.8 µM (inactive), the GI50 (Malme-3M) was 32.4 µM (inactive) and the GI50 (NCI-H522) was 21.4 µM (inactive). The GI50 (SF-295) was 52.8 µM (inactive), the GI50 (SR) was > 100 µM (inactive) and 60.3 µM (inactive) and the GI50 (A498) was > 100 µM (inactive). The GI50 (A549) was 51.9 µM (inactive), the GI50 (SW-620) was 59.7 µM (inactive) and the GI50 (SNB-19) was > 100 µM (inactive) and 83.2 µM (inactive). For the same molecule, the GI50 (OVCAR-5) was > 100 µM (inactive), the GI50 (NCI-H226) was > 100 µM (inactive) and the GI50 (RXF 393) was 50.1 µM (inactive). The GI50 (OVCAR-8) was > 100 µM (inactive), the GI50 (U-251) was 90.4 µM (inactive) and the GI50 (NCI-H460) was 67.1 µM (inactive) and 34 µM (inactive).

For `O=c1[nH]nc(Cc2ccc(Cl)cc2)n1/N=C/c1c[nH]c2ccccc12`, the GI50 (Malme-3M) was > 100 µM (inactive), the GI50 (786-0) was > 100 µM (inactive) and the GI50 (NCI-H522) was > 100 µM (inactive). The GI50 (EKVX) was > 100 µM (inactive), the GI50 (MOLT-4) was > 100 µM (inactive) and the GI50 (SF-295) was > 100 µM (inactive). For the same molecule, the GI50 (DU-145) was > 100 µM (inactive), the GI50 (UO-31) was > 100 µM (inactive) and the GI50 (SF-268) was > 100 µM (inactive). The GI50 (CCRF-CEM) was > 100 µM (inactive), the GI50 (SNB-75) was > 100 µM (inactive) and the GI50 (SR) was > 100 µM (inactive). The GI50 (UACC-257) was > 100 µM (inactive), the GI50 (A498) was > 100 µM (inactive) and the GI50 (HT-29) was > 100 µM (inactive). For the same molecule, the GI50 (A549) was > 100 µM (inactive), the GI50 (SW-620) was > 100 µM (inactive) and the GI50 (SK-MEL-5) was > 100 µM (inactive). The GI50 (SK-OV-3) was > 100 µM (inactive), the GI50 (TK-10) was > 100 µM (inactive) and the GI50 (MDA-MB-231) was > 100 µM (inactive). The GI50 (SNB-19) was > 100 µM (inactive), the GI50 (UACC-62) was > 100 µM (inactive) and the GI50 (OVCAR-5) was > 100 µM (inactive). The GI50 (NCI/ADR-RES) was 82.8 µM (inactive), the GI50 (HCC 2998) was > 100 µM (inactive) and the GI50 (NCI-H23) was > 100 µM (inactive). For the same molecule, the GI50 (IGROV-1) was > 100 µM (inactive), the GI50 (RPMI-8226) was 26.3 µM (inactive) and the GI50 (HCT-15) was over 100 µM. The GI50 (HL-60) was > 100 µM (inactive), the GI50 (NCI-H226) was > 100 µM (inactive) and the GI50 (Hs-578T) was > 100 µM (inactive). The GI50 (MCF7) was > 100 µM (inactive), the GI50 (MDA-N) was > 100 µM (inactive) and the GI50 (OVCAR-3) was > 100 µM (inactive). For the same molecule, the GI50 (CAKI-1) was > 100 µM (inactive), the GI50 (M14) was > 100 µM (inactive) and the GI50 (K562) was > 100 µM (inactive). The GI50 (OVCAR-8) was > 100 µM (inactive), the GI50 (U-251) was > 100 µM (inactive) and the GI50 (HCT-116) was > 100 µM (inactive). For the same molecule, the GI50 (ACHN) was > 100 µM (inactive), the GI50 (SN12C) was > 100 µM (inactive) and the GI50 (SK-MEL-28) was > 100 µM (inactive). The GI50 (KM12) was > 100 µM (inactive), the GI50 (HOP-62) was > 100 µM (inactive) and the GI50 (NCI-H460) was > 100 µM (inactive). For the same molecule, the GI50 (HOP-92) was > 100 µM (inactive), the GI50 (T47D) was > 100 µM (inactive) and the GI50 (SK-MEL-2) was > 100 µM (inactive). The GI50 (LOX IMVI) was > 100 µM (inactive), the GI50 (SF-539) was > 100 µM (inactive) and the GI50 (PC-3) was > 100 µM (inactive). The GI50 (MDA-MB-435) was > 100 µM (inactive) and the GI50 (OVCAR-4) was > 100 µM (inactive).
